In ChEMBL document CHEMBL1208782, “Synthesis and pharmacological validation of a novel series of non-steroidal FXR agonists” (Bioorg Med Chem Lett, 2010):

What was measured:
Format in all cases: functional, cell-based
[1] = molecular target: T1, Mineralocorticoid receptor (Homo sapiens) (UniProt P08235); assay: Agonist activity at mineralocorticoid receptor-LBD expressed in HEK293 cells assessed as Gal4-DBD interaction by cellular mammalian one hybrid assay relative to mineralocorticoid
T1 sequence (whole entry): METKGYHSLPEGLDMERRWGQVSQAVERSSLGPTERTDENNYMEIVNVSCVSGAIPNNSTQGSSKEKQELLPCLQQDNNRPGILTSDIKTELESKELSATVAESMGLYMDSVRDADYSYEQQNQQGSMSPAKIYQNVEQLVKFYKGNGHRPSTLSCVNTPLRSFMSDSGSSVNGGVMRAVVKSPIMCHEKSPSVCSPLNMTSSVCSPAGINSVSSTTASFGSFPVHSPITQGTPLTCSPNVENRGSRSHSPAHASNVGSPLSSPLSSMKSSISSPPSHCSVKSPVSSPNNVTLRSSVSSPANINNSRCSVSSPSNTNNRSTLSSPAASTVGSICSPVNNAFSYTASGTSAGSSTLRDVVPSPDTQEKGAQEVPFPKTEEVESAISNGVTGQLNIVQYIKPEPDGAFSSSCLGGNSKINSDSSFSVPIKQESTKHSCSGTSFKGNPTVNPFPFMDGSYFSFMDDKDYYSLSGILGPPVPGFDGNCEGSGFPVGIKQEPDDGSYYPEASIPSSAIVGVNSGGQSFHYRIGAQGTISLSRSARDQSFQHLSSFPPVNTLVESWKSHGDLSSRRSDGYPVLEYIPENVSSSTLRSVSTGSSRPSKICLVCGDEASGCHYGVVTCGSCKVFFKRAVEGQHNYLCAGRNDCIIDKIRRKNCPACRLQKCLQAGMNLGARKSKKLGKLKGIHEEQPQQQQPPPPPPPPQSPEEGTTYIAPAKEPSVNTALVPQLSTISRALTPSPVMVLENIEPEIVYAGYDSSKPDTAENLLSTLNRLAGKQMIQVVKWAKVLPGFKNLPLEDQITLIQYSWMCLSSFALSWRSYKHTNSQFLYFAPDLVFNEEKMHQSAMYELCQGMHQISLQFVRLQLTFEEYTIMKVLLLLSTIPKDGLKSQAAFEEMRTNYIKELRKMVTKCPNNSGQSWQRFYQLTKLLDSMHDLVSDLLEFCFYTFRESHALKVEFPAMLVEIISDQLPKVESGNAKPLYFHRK

[2] = molecular target: T2, Oxysterols receptor LXR-alpha (Homo sapiens) (UniProt Q13133); assay: Agonist activity at LXRalpha-LBD expressed in HEK293 cells assessed as Gal4-DBD interaction by cellular mammalian one hybrid assay relative to T0901317
T2 sequence (whole entry): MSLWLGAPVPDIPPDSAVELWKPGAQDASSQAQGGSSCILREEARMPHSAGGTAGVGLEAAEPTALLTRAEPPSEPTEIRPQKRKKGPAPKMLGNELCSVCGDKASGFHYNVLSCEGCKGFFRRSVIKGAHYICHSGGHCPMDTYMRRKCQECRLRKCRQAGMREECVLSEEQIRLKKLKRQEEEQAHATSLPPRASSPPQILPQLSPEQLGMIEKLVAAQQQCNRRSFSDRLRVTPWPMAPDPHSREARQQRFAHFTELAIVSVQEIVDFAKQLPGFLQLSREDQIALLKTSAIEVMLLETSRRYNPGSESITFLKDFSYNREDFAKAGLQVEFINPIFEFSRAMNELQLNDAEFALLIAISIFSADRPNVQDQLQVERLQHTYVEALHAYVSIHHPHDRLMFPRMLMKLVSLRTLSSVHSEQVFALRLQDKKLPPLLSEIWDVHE

Bile acid receptor = molecular target: T3, Bile acid receptor (Homo sapiens, UniProt Q96RI1); assay: Agonist activity at human full length FXR transfected in HEK293 cells coexpressing pTRexDest/pGL2promotor assessed as luciferase activity by direct reporter cellular assay; details: read-out: EC50
T3 sequence (Q96RI1 whole entry): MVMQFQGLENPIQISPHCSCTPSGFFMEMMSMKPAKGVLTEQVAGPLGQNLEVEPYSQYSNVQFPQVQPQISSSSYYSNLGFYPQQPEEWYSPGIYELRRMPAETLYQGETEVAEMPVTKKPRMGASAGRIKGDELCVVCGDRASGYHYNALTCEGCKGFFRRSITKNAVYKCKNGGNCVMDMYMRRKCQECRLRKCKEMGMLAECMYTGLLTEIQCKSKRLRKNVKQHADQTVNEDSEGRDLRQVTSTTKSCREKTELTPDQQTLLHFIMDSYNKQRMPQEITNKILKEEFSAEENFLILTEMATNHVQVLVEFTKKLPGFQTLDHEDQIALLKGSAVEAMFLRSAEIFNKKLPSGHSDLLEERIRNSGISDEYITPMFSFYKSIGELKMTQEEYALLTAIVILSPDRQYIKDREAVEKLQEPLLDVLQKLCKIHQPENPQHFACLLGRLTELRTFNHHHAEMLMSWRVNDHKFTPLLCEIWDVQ

[3] = molecular target: T4, Estrogen receptor (Homo sapiens) (UniProt P03372); assay: Agonist activity at ERalpha-LBD expressed in HEK293 cells assessed as Gal4-DBD interaction by cellular mammalian one hybrid assay relative to 17-beta-estradiol
T4 sequence (whole entry): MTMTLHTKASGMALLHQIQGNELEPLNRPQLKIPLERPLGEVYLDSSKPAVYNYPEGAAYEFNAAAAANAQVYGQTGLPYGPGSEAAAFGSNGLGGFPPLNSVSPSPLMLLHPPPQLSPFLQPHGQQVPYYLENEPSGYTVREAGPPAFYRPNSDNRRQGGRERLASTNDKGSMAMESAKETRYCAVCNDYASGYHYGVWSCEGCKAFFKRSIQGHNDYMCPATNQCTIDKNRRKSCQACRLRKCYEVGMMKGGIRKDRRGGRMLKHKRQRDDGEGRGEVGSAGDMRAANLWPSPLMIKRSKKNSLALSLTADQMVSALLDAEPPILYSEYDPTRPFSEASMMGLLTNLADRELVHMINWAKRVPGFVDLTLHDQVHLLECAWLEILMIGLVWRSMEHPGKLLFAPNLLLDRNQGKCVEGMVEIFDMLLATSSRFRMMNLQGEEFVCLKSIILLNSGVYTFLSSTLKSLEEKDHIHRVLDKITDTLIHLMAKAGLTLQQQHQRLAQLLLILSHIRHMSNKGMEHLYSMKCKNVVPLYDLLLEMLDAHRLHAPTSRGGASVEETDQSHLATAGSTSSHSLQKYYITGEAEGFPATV

Efficacy [1] [%] | Efficacy [2] [%] | EC50 (Bile acid receptor) [nM] | Efficacy [3] [%] | SMILES
0 | 0 | 2 | 24 | CN(Cc1cccc(C(=O)O)c1)c1ccc(OCc2c(-c3c(Cl)cccc3Cl)noc2C2CC2)nc1C(F)(F)F
0 | 0 | 6 | 0 | CN(Cc1ccc(C(=O)O)cc1)c1ccc(OCc2c(-c3c(Cl)cccc3Cl)noc2C2CC2)nc1C(F)(F)F
0 | 0 | 15 | 0 | CC(C)c1onc(-c2c(Cl)cccc2Cl)c1COc1ccc(N(C)Cc2ccc(C(=O)O)cc2)c(C(F)(F)F)n1
